Results taken from patent US20050202559A1, “Cancer treatment by metabolic modulations” (priority 2002, published 2005).

Tests used:
[1] = tested on: GSK-3; settings: read-out: concentration that inhibits GSK-3 to half maximal activity; cited from earlier work
[2] = tested on: HeLa cells; experiment: Adenovirus infection, Trypan Blue viability cell counts and morphology; assay type: cell-based, human; settings: roscovitine-treated versus untreated
Description: (§1) Cultured cells lines were seeded on six or twelve well tissue culture plates. When they reached 70-85% confluence, cells were infected with various amounts of recombinant GL adenovirus or control adenovirus. Adenovirus was added to each well in 300 μl medium and incubated for 2 hours at 37° C., 5% CO2. After incubation, 1.5 ml of medium was added and incubated at 37° C., 5% CO2. The medium was changed every day. At various time points post-infection, viable cells were counted using Trypan Blue and the remaining cells were collected and frozen for subsequent glycogen measurements.
Trypan Blue Viability Cell Counts: Trypan Blue (0.4%, Gibco) was used to stain dead and dying cells. Cells were removed from the tissue culture plates with 0.25% Trypsin-EDTA (Gibco #25200-056) and resuspended in 1 ml phosphate buffered saline (PBS). Manual cell counts were performed with a Neubauer hemocytometer.
Roscovitine Studies: Roscovitine (Calbiochem #557362), [2-(R)-(1-ethyl-2-hydroxyethylamino)-6-benzyl amino-9-isopropylpurine], is a potent and selective inhibitor of the cyclin-dependent kinases Cdk2 and Cdc2. Roscovitine stock solution was prepared in dimethylsulfoxide (DMSO) and stored at −20° C. until use. […]
Cell viability after viral infection was assessed using the Trypan Blue exclusion assay. Cells stained with Trypan Blue and viable cells are counted using a Neubauer hemocytometer. […]

[3] = tested on: HeLa cells; experiment: Glycogen assay (glucoamylase hydrolysis, glucose Trinder reagent); assay type: cell-based, human; settings: uninfected control HeLa cells, 35 μM roscovitine
Description: as §1
Glycogen Assay: Enzymatic glycogen hydrolysis to glucose was performed according to Keppler and Decker with some modifications (Keppler and Decker, 1984 in: Methods of Enzymatic Analysis, 3rd ed. (Bergmeyer, H. U. Bergmeyer, J., and Grab, M. Eds.), Vol. 6, pp. 11-18, VCH, New York.). In brief, frozen cell pellets were subjected to three rounds of freezing and thawing to disrupt cell membranes. Cell pellets were resuspended in 200 μl 250 mU glucoamylase in 0.2 M sodium acetate buffer, pH 4.8. Lysates were incubated for two hours at 45° C. with shaking. Lysates were cleared by centrifugation at 2500 rpm for 10 min. […] Glucose was then determined with the glucose Trinder colorometric reagent (Sigma, 315-500). The intensity of the color reaction was measured at 505nm using a Molecular Devices VERSAmax microplate reader. […]

[4] = tested on: GSK-3; settings: cited from earlier work

For `[Be+2]` [beryllium], the IC50 [1] is listed as 6 mM.

With `CC[C@H](CO)Nc1nc(NCc2ccccc2)c2ncn(C(C)C)c2n1` [roscovitine, 2-(R)-(1-ethyl-2-hydroxyethylamino)-6-benzyl amino-9-isopropylpurine] the “cell viability of AdGL-infected cells” value [2] was “significantly decreased” and the glycogen accumulation [3] was “no significant increases”.

For `[Zn+2]` [zinc], the “concentration at which GSK-3 is inhibited in cell culture” value [4] is given as 15 mM.
